Experimental data: patent US4072675A, “N-phenyl amidines” (Mead Johnson & Company, priority 1975, dated 1978)
Values after ≈ are worked out from the molar mass of the structure shown. Structures can show the parent of a compound that is named as a salt. Where two headings read alike, the source gives them in different places.

Key:
[1] = Diuretic test in rats according to the Lipschitz method (urine volume and electrolyte excretion vs urea control); type: in vivo; conditions: rat
Description: The compounds of the present invention are evaluated as diuretics according to the method of W. L. Lipschitz, et al., J. Pharmacol. Expt. Therap., 79, 97 (1943). In this method, groups of 8 rats are fasted 18 hours prior to the experiment. A control group is hydrated orally with 25 ml. per kilogram of body weight of isotonic saline solution which is also the vehicle used for dosing the test compound. One control group received a dose of 960 mg./kg. of body weight of urea. Animals of other groups are tested with various doses of the test compound. Immediately after treatment, the animals are placed in metabolism cages (two rats of the same group per cage) and maintained without food or water for 5 hours. The volume of urine excreted by each pair is determined after this period and the pooled urine is analyzed for sodium, potassium, and chloride ions. […] In this test, the N-phenyl amidines of Formula I were orally administered in doses ranging from 2.7 to 25 mg./kg. of body weight.
One of the disadvantages associated with diuretics such as the thiazides is believed to stem largely from increased excretion of potassium ion concomitant with water elimination. […] As stated hereinabove,excessive excretion of potassium ion may cause an electrolyte imbalance resulting in adverse side effects.

[2] = system: aconitine induced atrial arrhythmia; assay: In vivo dog arrhythmia test (aconitine induced atrial arrhythmia); conditions: Canis lupus familiaris, iv, read-out: effective dose restoring normal cardiac rhythm
Source text: In the in vivo dog arrhythmia test, the chest of an anesthetized dog is opened in the mid-line and the right and left atrial appendages exposed to small slits in the pericardium. Bypolar recording electrodes are affixed to atrial surfaces and a 4 × 4 mm. piece of clean cloth is fixed to surface of the right auricular appendage. Control recordings are made of various heart functions including femoral arterial blood pressure and right and left atrail electrograms. Atrial arrhythmia is then induced by placing 3-5 drops of a solution of aconitine on the cloth which is fixed to the right atrium. An irregular, rapid atrial rate is produced within 1 minute. Throughout the test, fresh aconitine (2-3 drops) is placed on the cloth at 10 minute intervals. The test compound is administered intravenously 5 minutes after the initial establishment of the arrhythmia and infusion continued at a slow rate until an effective dose which re-establishes normal rhythm of the heart is obtained.
The Formula Ia N-phenylamidines are effective both orally and parenterally as antiarrhythmic agents. For instance, intravenous administration of about 2.5 mg./kg. of 3,4,5,6-tetrahydro-7-[(N-phenyl)-phenethylamino]-2H-azepine or 4,5,6,7,8,9-hexahydro-2-(N-phenylphenethyl-amino)-3H-azonine effectively restores normal cardiac rhythm to induced arrhythmia in the dog.

[3] = system: chloroform induced arrhythmia; assay: Chloroform induced arrhythmia in the mouse; type: in vivo; conditions: ip, intraperitoneal, read-out: ED50 preventing chloroform induced arrhythmia
Source text: Another in vivo test indicative of antiarrhythmic activity is chloroform induced arrhythmia in the mouse.

rabbit ileum = assay: In vitro smooth muscle relaxant test, isolated rabbit ileum with spasmogen; type: cell-based; conditions: from EC50 vs spasmogen, papaverine = reference
Description: Smooth muscle relaxant activity of the compounds of the present invention can be measured in standard in vitro and in vivo pharmacological tests. One such in vitro test is carried out essentially as follows. A segment of rabbit ileum is suspended and oxygenated in Tyrode's solution and affixed to a tension transducer for electronic recording of isometric contractions. After controlled responses to a standard dose of a spasmogen such as barium chloride (0.25 mg./ml.), acetyl choline chloride (1.0 mcg./ml.), etc., are established, the test compound is added and the response to the spasmogen, in the presence of the test agent, again determined. Test compound effect is measured as the percentage reduction in the response to the spasmogen, in the presence of the test compound, from the mean control response. A minimum of four trials is obtained with each of two to five different concentrations of the test compound. The data are expressed in log dose response curves and estimates made therefrom of the EC50 (concentration causing 50% reduction in response of the tissue to the spasmogen). In general, the effect of compounds identified by Formula I on the rabbit ileum is similar to papaverine, a well-known smooth muscle relaxant. […]

intestinal smooth muscle = assay: In vivo intestinal smooth muscle relaxation in anesthetized cat (intraduodenal pressure)
Description: Intestinal smooth muscle relaxant activity can also be measured in an in vivo cat preparation. In this test, a balloon is inserted through a small incision in the stomach of an anesthetized cat to a point about 10 cm. down the duodenum and intralumenal intestinal pressure changes recorded. A solution or suspension of the test agent is administered intraduodenally about 2 cm. beyond the balloon placed for recording intraduodenal pressure in volume doses of 1 ml./kg. body weight. This means of administration mimics oral administration. Various doses of the test agent are administered and an inhibitory dose which supresses intestinal […] by 50% of maximum is determined. This value is designated the ID50. N-benzyl-N'-tert-butyl-N-phenylforamidine hydrochloride compared to papaverine is about 1.5 times as potent in this test.

rabbit atrium = assay: Isolated rabbit atrium test (refractory period); type: cell-based; conditions: Oryctolagus cuniculus, read-out: EC50 (50% of maximal increase in refractory period)
Description: In the rabbit atrium test, the left atrium is placed in Chenoweth's solution warmed to 30° C. and irrigated with 95% oxygen:5% carbon dioxide. The lower end of the atrium is attached to a small hook fixed in the bath and the upper end is connected to a transducer to record contractile activity. The atrium is electrically stimulated at a basic rate of 30 per minute employing square wave pulses of 10 millisecond duration at 1.2-1.5 times threshold voltage. The test compound is introduced into the bath and the test repeated after a 5 minute interval. A dose response relationship is obtained by additional doses of the test compound. Potency of a test agent can be expressed as the effective concentration which produces 50% of the maximal increase in the measured refractory period of the steady state atrium. This value is designated the EC50.

[4] = system: guinea pig isolated tracheal spiral; assay: In vitro guinea pig isolated tracheal spiral test; type: cell-based
Description: Another in vitro test measuring the smooth muscle relaxant properties of the compounds of the present invention employs the guinea pig isolated tracheal spiral and is carried out essentially as described by Lish, et al., J. Pharmacol. Exp. Therap., 129, 191 (1960). As illustrative of the activity of the compounds of the present invention in this test there can be mentioned 3-[(N-1-pyrrolin-2-yl-p-anisidino)methyl]indole hydrochloride which is about 1.7 times as potent as aminophylline.

[5] = system: histamine challenged guinea pig; assay: Histamine challenged guinea pig aerosol test (bronchodilation); type: in vivo; conditions: oral
Source text: As a bronchodilating agent, 3-[(N-1-pyrrolin-2-yl-p-anisidino)methyl]indolehydrochloride is of particular interest. In the histamine challenged guinea pig aerosol test, refer to Turner, Screening Methods In Pharmacology, page 214 (1965) (Academic Press, New York), this compound is about 1.4 times as potent as aminophylline when administered orally.

[6] = rabbit left atrium, 30° C., Chenoweth's solution

## c1ccc(N=C2CCCN2)cc1 [2-phenyliminopyrrolidine, reference compound]
[1]; Lipschitz method
  diuretic activity (in words): substantially inactive as a diuretic agent

## c1ccc(CCN(C2=NCCCCC2)c2ccccc2)cc1 [3,4,5,6-tetrahydro-7-[(N-phenyl)phenethylamino]-2H-azepine]
[2]
  minimal effective dose: ~2.5 mg/kg
[3]
  ED50: 11.5 mg/kg

## c1ccc(CCN(C2=NCCCCCCC2)c2ccccc2)cc1 [4,5,6,7,8,9-hexahydro-2-(N-phenylphenethylamino)-3H-azonine]
[2]
  minimal effective dose: ~2.5 mg/kg

## CC(C)(C)N=CN(CCc1ccccc1)c1ccccc1.Cl [Example 1, N'-tert-Butyl-N-phenethyl-N-phenylformamidine hydrochloride]
Rabbit ileum
  smooth muscle relaxant potency relative to papaverine (times as potent): 5

## CC(C)(C)N=CN(Cc1ccccc1)c1ccccc1.Cl [Example 2, N-Benzyl-N'-tert.-butyl-N-phenylformamidine hydrochloride]
Intestinal smooth muscle
  potency relative to papaverine (times as potent, ID50): about 1.5

## CC1CCC(N(Cc2ccccc2)c2ccccc2)=N1.Cl (stereo not shown) [Example 5, 5-Methyl-2-(N-phenylbenzylamino)-1-pyrroline hydrochloride]
[1]; oral, 6.25 mg./kg.
  ratio of sodium ion excretion to potassium ion excretion: 2.7
[1]; oral, 6.25 mg./kg., 5 hours
  ratio for potassium ion excretion vs urea control group: 0.75
  ratio for sodium ion excretion vs urea control group: 2.03
  ratio for volume excretion vs urea control group: 2.32

## Cl.c1ccc(CCN(C2=NCCCCC2)c2ccccc2)cc1 [Example 10, 3,4,5,6-Tetrahydro-7-[(N-phenyl)phenethylamino]-2H-azepine hydrochloride]
Rabbit atrium; [6]
  EC50: 7.2 µg/mL

## COc1ccc(N(Cc2c[nH]c3ccccc23)C2=NCCC2)cc1 [Example 34, 3-[N-1-Pyrrolin-2-yl-p-anisidino)methyl]indole hydrochloride]
[4]
  potency relative to aminophylline (times as potent): about 1.7
[5]
  bronchodilating potency relative to aminophylline (times as potent): about 1.4

## CC1CCC(N(Cc2c[nH]c3ccccc23)c2ccccc2)=N1.Cl (stereo not shown) [Example 37, 3-[[N-(5-methyl-1-pyrrolin-2yl)anilino]methyl]indole hydrochloride]
Rabbit ileum
  smooth muscle relaxant potency relative to papaverine (times as potent): 1.4

## c1ccc(CCN(C2=NCCCCCC2)c2ccccc2)cc1 [Example 60, 3,4,5,6,7,8-Hexahydro-2-(N-phenylphenethylamino)azocine hydrochloride hemihydrate]
Rabbit atrium; [6]
  EC50: 2.5 µg/mL

## Cl.c1ccc(CCN(C2=NCCCCCCC2)c2ccccc2)cc1 [Example 61, 4,5,6,7,8,9-Hexahydro-2-(N-phenylphenethylamino)-3H-azonine Hydrochloride]
Rabbit atrium; [6]
  EC50: 1.9 µg/mL

## NS(=O)(=O)c1cc2c(cc1Cl)NCNS2(=O)=O [Hydrochlorothiazide, reference compound]
[1]; oral, 6.25 mg./kg.
  ratio of sodium ion excretion to potassium ion excretion: 1.65

## C=C[C@H]1C[N@@]2CC[C@H]1C[C@@H]2[C@@H](O)c1ccnc2ccc(OC)cc12 [Quinidine, reference compound]
[2]
  minimal effective dose: 6 mg/kg
Rabbit atrium
  EC50: 18 µg/mL (≈ 55.5 µM)
